The record followed here is US7388027B2, “Bicyclic compounds as modulators of androgen receptor function and method” (Bristol-Myers Squibb Company, priority 2004, dated 2008).

Usually Kd stands for the free concentration of one partner at which half of the binding sites on the other are occupied at equilibrium, for simple one-to-one binding.

In one assay the target is T1, AR (Rattus norvegicus, UniProt P15207).
T1 sequence (P15207 1-902): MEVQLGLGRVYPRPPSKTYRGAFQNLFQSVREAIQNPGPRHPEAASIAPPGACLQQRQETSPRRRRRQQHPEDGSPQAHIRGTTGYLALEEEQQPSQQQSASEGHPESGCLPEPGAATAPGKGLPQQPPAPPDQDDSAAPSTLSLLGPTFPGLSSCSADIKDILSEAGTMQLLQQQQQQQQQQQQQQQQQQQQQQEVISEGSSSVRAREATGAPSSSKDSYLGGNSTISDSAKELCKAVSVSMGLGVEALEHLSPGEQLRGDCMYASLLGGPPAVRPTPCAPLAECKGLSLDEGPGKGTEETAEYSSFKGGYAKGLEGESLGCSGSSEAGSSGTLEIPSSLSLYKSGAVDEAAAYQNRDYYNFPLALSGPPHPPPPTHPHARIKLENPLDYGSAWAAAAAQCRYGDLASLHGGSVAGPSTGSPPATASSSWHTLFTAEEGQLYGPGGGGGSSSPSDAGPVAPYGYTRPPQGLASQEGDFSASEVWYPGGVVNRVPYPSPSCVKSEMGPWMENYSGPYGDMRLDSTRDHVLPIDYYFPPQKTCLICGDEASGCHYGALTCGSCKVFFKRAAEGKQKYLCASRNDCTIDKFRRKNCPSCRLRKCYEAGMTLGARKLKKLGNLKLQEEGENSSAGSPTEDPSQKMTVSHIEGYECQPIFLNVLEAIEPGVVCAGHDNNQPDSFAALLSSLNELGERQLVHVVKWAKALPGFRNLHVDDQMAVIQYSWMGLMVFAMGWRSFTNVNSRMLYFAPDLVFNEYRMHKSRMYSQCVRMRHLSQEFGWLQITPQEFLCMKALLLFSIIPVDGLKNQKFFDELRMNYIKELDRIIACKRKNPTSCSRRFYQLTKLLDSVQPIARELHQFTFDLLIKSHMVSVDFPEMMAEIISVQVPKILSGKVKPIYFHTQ
The text has this:
The activity of compounds of the present invention as AR agonists was investigated in an immature male rat model, a recognized test of anabolic effects in muscle and sustaining effects in sex organs for a given compound, as described in L. G. Hershberger et al., Proc. Soc. […] Biol. Med., 83, 175 (1953); B. L. Beyler et al, “Methods for evaluating anabolic and catabolic agents in laboratory animals”, J. Amer. Med. Women's Ass., 23, 708 (1968); H. Fukuda et al., “Investigations of the levator ani muscle as an anabolic steroid assay”, Nago Dai. Yak. Ken. Nem. 14, 84 (1966) the disclosures of which are herein incorporated by reference.
The basis of this assay lies in the well-defined action of androgenic agents on the maintenance and growth of muscle tissues and sexual accessory organs in animals and man. […] J. Anat. […] I. Quantitative data” Boll.-Soc. Ital. Biol. Sper. […] II. Electron-microscopic observations” Boll.-Soc. Ital. Biol. Sper. 42, 1600 (1966); A. Boris et al., Steroids 15, 61 (1970). As described above, the effects of androgens on maintenance of male sexual accessory organs, such as the prostate and seminal vesicles, is well described. Castration results in rapid involution and atrophy of the prostate and seminal vesicles. This effect can be reversed by exogenous addition of androgens. […]

For assay [1], the system named is endogenous glucocorticoid receptor (A549 cells, AP-1 luciferase reporter). Nature of the assay: In vitro assay to measure GR-induced AP-1 transrepression (luciferase reporter in A549 cells). Format: cell-based. Particulars: concentration of ≦10 μM; 10 ng/mL PMA; 7 h; typical value. A general note: In a reporter assay the amount or activity of a reporter protein is the signal.
Procedure: The AP-1 assay is a cell-based luciferase reporter assay. A549 cells, which contain endogenous glucocorticoid receptor, were stably transfected with an AP-1 DNA binding site attached to the luciferase gene. Cells are then grown in RPMI+10% fetal calf serum (charcoal-treated)+Penicillin/Streptomycin with 0.5 mg/mL geneticin. Cells are plated the day before the assay at approximately 40000 cells/well. On assay day, the media is removed by aspiration and 20 μL assay buffer (RPMI without phenol red+10% FCS (charcoal-treated)+Pen/Strep) is added to each well. At this point either 20 μL assay buffer (control experiments), the compounds of the present invention (“test compounds”) (dissolved in DMSO and added at varying concentrations) or dexamethasome (100 nM in DMSO, positive control) are added to each well. The plates are then pre-incubated for 15 min at 37° C., followed by stimulation of the cells with 10 ng/mL PMA. The plates are then incubated for 7 h at 37° C. after which 40 μL luciferase substrate reagent is added to each well. Activity is measured by analysis in a luminometer as compared to control experiments treated with buffer or dexamethasome.

Assay [2] concerns wild type AR (MDA 453 cells). Particulars: read-out: Kd for [3H]-DHT, Scatchard analysis, 4 h at 37° C. How it is done: For the whole-cell binding assay, human LNCaP cells (T877A mutant AR) or MDA 453 (wild type AR) in 96-well microtiter plates containing RPMI 1640 or DMEM supplemented with 10% charcoal stripped CA-FBS (Cocaleco Biologicals) respectively, were incubated at 37° C. to remove any endogenous ligand that might be complexed with the receptor in the cells.
For the saturation analysis, the difference between the total binding and the non-specific binding, was defined as specific binding. […] See e.g. D. Rodbard, Mathematics and statistics of ligand assays: an illustrated guide: In: J. Langon and J. J. Clapp, eds., Ligand Assay, Masson Publishing U.S.A., Inc., New York, pp. 45-99, (1981), the disclosure of which is herein incorporated by reference.
[formula] After correcting for non-specific binding, IC50 values were determined. […] C2C12 Mouse Myoblast Transactivation Assay

Regarding `CCC(=O)O[C@H]1CC[C@H]2[C@@H]3CCC4=CC(=O)CC[C@]4(C)[C@H]3CC[C@]12C` [TP, testosterone propionate], at AR (immature castrated rats), the “EC50 (increase in organ weight)” value is around 0.03 mg. On AR (organ weight increase, rats), the “potency relative to free T” value is listed as 10-30 fold.
Take `C[C@@H]1C[C@H]2[C@@H]3CCC4=CC(=O)C=C[C@]4(C)[C@@]3(F)[C@@H](O)C[C@]2(C)[C@@]1(O)C(=O)CO` [dexamethasone]: the “suppression of activity (% inhibition of the reporter system vs buffer control with PMA alone)” value in assay [1] is recorded as 65%.
Take “tritiated dihydrotestosterone [[^3H]-DHT]”: in assay [2], the dissociation constant Kd is 0.7 nM.
